Test results: patent publication US20240100065A1, “METHODS FOR TREATING RECEPTOR-INTERACTING PROTEIN KINASE 1-MEDIATED DISEASES” (Genzyme Corporation, priority 2022, published 2024)

Assay: Concentration-ECG (QTcF, HR, PR, QRS) analysis from 24-hour Holter
Assay type: in vivo, human
Description: A thorough time-matched (TM∘) ECG parameters analysis in relation with SAR443820 concentrations on Day 1 (SAD-Part 1a) and on Day 14 (MAD Part 2) over 24 hours compared to the baseline prior the first dosing was performed on ECG extracted from 24-hour Holter data.
For Part 1a (SAD) and Part 2 (MAD), the concentration-ECG population will encompass all randomized participants treated by SAR443820 as long as they have at least 1 ECG assessment time-matched with a pharmacokinetic concentration (ECGs centrally read coming from 24-hours Holter ECG). Participants randomized in the placebo group will also be included in the Concentration-ECG population if they have at least 1 non missing change from baseline in ECG parameter. Exposure-response analyses between QTcF parameters (change from time-matched baseline in 24-hours Holter ECG data) and corresponding Compound 1 concentrations were performed using graphical tools and regression methods over 24 hours on Day 1 (SAD-Part 1a) or Day 14 (MAD-Part 2) post-dose. Predictions at selected concentrations were computed using a linear mixed effect model (see Am Heart J. 2014; 168(3):262-72. J Pharmacokinet Pharmacodyn. 2018; 45(3):383-97).

[1] = Part 1a Day 1, 10 mg, at Cmax 116.00 ng/ml
[2] = Part 1a Day 1, 20 mg, at Cmax 241.00 ng/ml
[3] = Part 1a Day 1, 30 mg, at Cmax 417.00 ng/ml
[4] = Part 1a Day 1, 40 mg, at Cmax 555.00 ng/ml
[5] = Part 2 Day 14, 10 mg QD, at Cmax 158.00 ng/ml
[6] = Part 2 Day 14, 15 mg BID, at Cmax 268.00 ng/ml
[7] = Part 2 Day 14, 20 mg BID, at Cmax 353.00 ng/ml
[8] = Part 2 Day 14, 20 mg QD, at Cmax 250.00 ng/ml

CC(C)(C(=O)N1CCOc2c(C#N)cncc2C1)C(F)F [Compound 1, 4-(3,3-difluoro-2,2-dimethyl-propanoyl)-3,5-dihydro-2H-pyrido[3,4-f] [1,4]oxazepine-9-carbonitrile]
Predicted delta Heart Rate vs placebo [1]: −3.68 beats/min
Predicted delta PR Interval vs placebo [1]: 5.87 ms
Predicted delta QRS Duration vs placebo [1]: -0.04 ms
Predicted delta QTcF interval vs placebo [1]: -4.41 ms
Predicted delta Heart Rate vs placebo [2]: −2.62 beats/min
Predicted delta PR Interval vs placebo [2]: 6.70 ms
Predicted delta QRS Duration vs placebo [2]: 0.43 ms
Predicted delta QTcF interval vs placebo [2]: -3.88 ms
Predicted delta Heart Rate vs placebo [3]: −1.11 beats/min
Predicted delta PR Interval vs placebo [3]: 7.88 ms
Predicted delta QRS Duration vs placebo [3]: 1.10 ms
Predicted delta QTcF interval vs placebo [3]: -3.15 ms
Predicted delta Heart Rate vs placebo [4]: 0.06 beats/min
Predicted delta PR Interval vs placebo [4]: 8.80 ms
Predicted delta QRS Duration vs placebo [4]: 1.62 ms
Predicted delta QTcF interval vs placebo [4]: -2.57 ms
Predicted delta Heart Rate vs placebo [5]: 0.25 beats/min
Predicted delta PR Interval vs placebo [5]: -4.63 ms
Predicted delta QRS Duration vs placebo [5]: 2.52 ms
Predicted delta QTcF interval vs placebo [5]: -5.36 ms
Predicted delta Heart Rate vs placebo [6]: −0.26 beats/min
Predicted delta PR Interval vs placebo [6]: -4.53 ms
Predicted delta QRS Duration vs placebo [6]: 3.00 ms
Predicted delta QTcF interval vs placebo [6]: -3.74 ms
Predicted delta Heart Rate vs placebo [7]: −0.65 beats/min
Predicted delta PR Interval vs placebo [7]: -4.46 ms
Predicted delta QRS Duration vs placebo [7]: 3.37 ms
Predicted delta QTcF interval vs placebo [7]: -2.49 ms
Predicted delta Heart Rate vs placebo [8]: −0.18 beats/min
Predicted delta PR Interval vs placebo [8]: -4.55 ms
Predicted delta QRS Duration vs placebo [8]: 2.92 ms
Predicted delta QTcF interval vs placebo [8]: -4.01 ms
Effect on QTcF intervals (single dose up to 40 mg, repeated dose up to 20 mg BID): No clinically relevant dose-related effects
